According to US6825170B2, “6-O-acyl ketolide antibacterials” (Ortho-McNeil Pharmaceutical, Inc., priority 2001, dated 2004):
Converted amounts (≈) assume the structure as drawn.

What was measured:
Experiment in all cases: MIC, microdilution broth method (NCCLS)
Format in all cases: cell-based
Details in all cases: 35° C., 16-20 hours
[1] = system: E. coli OC2605
How it was run: (§1)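 NCCLS microdilution method in cation-adjusted Mueller-Hinton broth, serial two-fold dilutions, final inoculum approximately 5×10^4 CFU/well. MIC read after 16-20 hours' incubation at 35° C.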

[2] = system: S. aureus ATCC29213
How it was run: as §1

[3] = system: S. pneumoniae ATCC49619
How it was run: as §1

[4] = system: H. influenzae ATCC49247
How it was run: as §1

[5] = system: E. faecalis ATCC29212
How it was run: as §1

Structure (SMILES): CC[C@H]1OC(=O)[C@H](C)C(=O)[C@H](C)[C@@H](O[C@@H]2O[C@H](C)C[C@H](N(C)C)[C@H]2O)[C@](C)(OC(=O)NNCc2ccc(-c3ncccn3)cc2)C[C@@H](C)C(=O)[C@H](C)[C@H]2NC(=O)O[C@@]21C [Compound 676]
- MIC (A: E. coli OC2605) [1]: 8 µg/mL (≈ 9.7 µM)
- MIC (B: S. aureus ATCC29213) [2]: 0.25 µg/mL (≈ 0.303 µM)
- MIC (D: S. pneumoniae ATCC49619) [3]: 0.03 µg/mL (≈ 0.0364 µM)
- MIC (E: H. influenzae ATCC49247) [4]: 4 µg/mL (≈ 4.85 µM)
- MIC (C: E. faecalis ATCC29212) [5]: 0.12 µg/mL (≈ 0.145 µM)

Structure (SMILES): CCC1OC(=O)C(C)C(=O)C(C)C(OC2OC(C)CC(N(C)C)C2O)C(C)(OC(=O)NOCc2ccc(-c3ncccn3)cc2)CC(C)C(=O)C(C)C2NC(=O)OC12C (centres unmarked) [Compound 599]
- MIC (A: E. coli OC2605) [1]: 16 µg/mL (≈ 19.4 µM)
- MIC (B: S. aureus ATCC29213) [2]: 0.5 µg/mL (≈ 0.605 µM)
- MIC (D: S. pneumoniae ATCC49619) [3]: 0.06 µg/mL (≈ 0.0726 µM)
- MIC (E: H. influenzae ATCC49247) [4]: 2 µg/mL (≈ 2.42 µM)
- MIC (C: E. faecalis ATCC29212) [5]: 0.25 µg/mL (≈ 0.303 µM)

Structure (SMILES): CCC1OC(=O)C(C)C(=O)C(C)C(OC2OC(C)CC(N(C)C)C2O)C(C)(OC(=O)NN)CC(C)C(=O)C(C)C2NC(=O)OC12C (centres unmarked) [Compound 5]
- MIC (A: E. coli OC2605) [1]: >16 µg/mL
- MIC (B: S. aureus ATCC29213) [2]: 16 µg/mL (≈ 24.4 µM)
- MIC (D: S. pneumoniae ATCC49619) [3]: 0.5 µg/mL (≈ 0.761 µM)
- MIC (E: H. influenzae ATCC49247) [4]: 8 µg/mL (≈ 12.2 µM)
- MIC (C: E. faecalis ATCC29212) [5]: 4 µg/mL (≈ 6.09 µM)

Structure (SMILES): CCC1OC(=O)C(C)C(=O)C(C)C(OC2OC(C)CC(N(C)C)C2O)C(C)(OC(=O)NOCCc2ccc(-c3ncccn3)cc2)CC(C)C(=O)C(C)C2NC(=O)OC12C (centres unmarked) [Compound 571]
- MIC (A: E. coli OC2605) [1]: >16 µg/mL
- MIC (B: S. aureus ATCC29213) [2]: 0.5 µg/mL (≈ 0.595 µM)
- MIC (D: S. pneumoniae ATCC49619) [3]: 0.03 µg/mL (≈ 0.0357 µM)
- MIC (E: H. influenzae ATCC49247) [4]: 4 µg/mL (≈ 4.76 µM)
- MIC (C: E. faecalis ATCC29212) [5]: 0.12 µg/mL (≈ 0.143 µM)

Structure (SMILES): CC[C@H]1OC(=O)[C@H](C)C(=O)[C@H](C)[C@@H](O[C@@H]2O[C@H](C)C[C@H](N(C)C)[C@H]2O)[C@](C)(OC(=O)NN2CCC(c3ccccc3)CC2)C[C@@H](C)C(=O)[C@H](C)[C@H]2NC(=O)O[C@@]21C [Compound 807]
- MIC ([1]; Escherichia coli): > 16 µg/mL
- MIC ([2]; Staphylococcus aureus, read-out: MIC (B: S. aureus ATCC29213)): 2 µg/mL (≈ 2.5 µM)
- MIC ([3]; Streptococcus pneumoniae, read-out: MIC (D: S. pneumoniae ATCC49619)): 0.12 µg/mL (≈ 0.15 µM)
- MIC ([4]; Haemophilus influenzae, read-out: MIC (E: H. influenzae ATCC49247)): 4 µg/mL (≈ 4.99 µM)
- MIC ([5]; Enterococcus faecalis): 1 µg/mL (≈ 1.25 µM)

Structure (SMILES): CC[C@H]1OC(=O)[C@H](C)C(=O)[C@H](C)[C@@H](O[C@@H]2O[C@H](C)C[C@H](N(C)C)[C@H]2O)[C@](C)(OC(=O)NOCCCc2ccccc2)C[C@@H](C)C(=O)[C@H](C)[C@H]2NC(=O)O[C@@]21C [Compound 612]
- MIC (A: E. coli OC2605) [1]: >16 µg/mL
- MIC (B: S. aureus ATCC29213) [2]: 1 µg/mL (≈ 1.29 µM)
- MIC (D: S. pneumoniae ATCC49619) [3]: 0.06 µg/mL (≈ 0.0773 µM)
- MIC (E: H. influenzae ATCC49247) [4]: 4 µg/mL (≈ 5.16 µM)
- MIC (C: E. faecalis ATCC29212) [5]: 0.25 µg/mL (≈ 0.322 µM)

Structure (SMILES): CCC1OC(=O)C(C)C(=O)C(C)C(OC2OC(C)CC(N(C)C)C2O)C(C)(OC(=O)OCC#Cc2ccc(-c3cccnn3)cc2)CC(C)C(=O)C(C)C2NC(=O)OC12C (centres unmarked) [Compound 87]
- MIC (A: E. coli OC2605) [1]: 8 µg/mL (≈ 9.58 µM)
- MIC (B: S. aureus ATCC29213) [2]: 0.12 µg/mL (≈ 0.144 µM)
- MIC (D: S. pneumoniae ATCC49619) [3]: 0.03 µg/mL (≈ 0.0359 µM)
- MIC (E: H. influenzae ATCC49247) [4]: 1 µg/mL (≈ 1.2 µM)
- MIC (C: E. faecalis ATCC29212) [5]: 0.06 µg/mL (≈ 0.0719 µM)

Structure (SMILES): CCC1OC(=O)C(C)C(=O)C(C)C(OC2OC(C)CC(N(C)C)C2O)C(C)(OC(=O)OCC=Cc2ccc(-c3cccnn3)cc2)CC(C)C(=O)C(C)C2NC(=O)OC12C (centres unmarked) [Compound 20]
- MIC (A: E. coli OC2605) [1]: 8 µg/mL (≈ 9.56 µM)
- MIC (B: S. aureus ATCC29213) [2]: 0.12 µg/mL (≈ 0.143 µM)
- MIC (D: S. pneumoniae ATCC49619) [3]: 0.03 µg/mL (≈ 0.0358 µM)
- MIC (E: H. influenzae ATCC49247) [4]: 2 µg/mL (≈ 2.39 µM)
- MIC (C: E. faecalis ATCC29212) [5]: 0.06 µg/mL (≈ 0.0717 µM)

Structure (SMILES): CC[C@H]1OC(=O)[C@H](C)C(=O)[C@H](C)[C@@H](O[C@@H]2O[C@H](C)C[C@H](N(C)C)[C@H]2O)[C@](C)(OC(=O)NN(CC)CCc2ccc(-c3ncccn3)cc2)C[C@@H](C)C(=O)[C@H](C)[C@H]2NC(=O)O[C@@]21C [Compound 804]
- MIC (A: E. coli OC2605) [1]: >16 µg/mL
- MIC (B: S. aureus ATCC29213) [2]: 0.5 µg/mL (≈ 0.577 µM)
- MIC (D: S. pneumoniae ATCC49619) [3]: 0.03 µg/mL (≈ 0.0346 µM)
- MIC (E: H. influenzae ATCC49247) [4]: 8 µg/mL (≈ 9.23 µM)
- MIC (C: E. faecalis ATCC29212) [5]: 0.12 µg/mL (≈ 0.138 µM)

Structure (SMILES): CCC1OC(=O)C(C)C(=O)C(C)C(OC2OC(C)CC(N(C)C)C2O)C(C)(OC(=O)n2ccc(C=O)c2)CC(C)C(=O)C(C)C2NC(=O)OC12C (centres unmarked) [Compound 3]
- MIC (A: E. coli OC2605) [1]: >16 µg/mL
- MIC (B: S. aureus ATCC29213) [2]: >16 µg/mL
- MIC (D: S. pneumoniae ATCC49619) [3]: 1 µg/mL (≈ 1.39 µM)
- MIC (E: H. influenzae ATCC49247) [4]: >16 µg/mL
- MIC (C: E. faecalis ATCC29212) [5]: 4 µg/mL (≈ 5.56 µM)

Structure (SMILES): CC[C@H]1OC(=O)[C@H](C)C(=O)[C@H](C)[C@@H](O[C@@H]2O[C@H](C)C[C@H](N(C)C)[C@H]2O)[C@](C)(OC(=O)NNCc2ccccc2)C[C@@H](C)C(=O)[C@H](C)[C@H]2NC(=O)O[C@@]21C [Compound 625]
- MIC (A: E. coli OC2605) [1]: >16 µg/mL
- MIC (B: S. aureus ATCC29213) [2]: 2 µg/mL (≈ 2.68 µM)
- MIC (D: S. pneumoniae ATCC49619) [3]: 0.03 µg/mL (≈ 0.0402 µM)
- MIC (E: H. influenzae ATCC49247) [4]: 4 µg/mL (≈ 5.36 µM)
- MIC (C: E. faecalis ATCC29212) [5]: 0.25 µg/mL (≈ 0.335 µM)

Structure (SMILES): CC[C@H]1OC(=O)[C@H](C)C(=O)[C@H](C)[C@@H](O[C@@H]2O[C@H](C)C[C@H](N(C)C)[C@H]2O)[C@](C)(OC(=O)NNCc2ccc(-c3cccnn3)cc2)C[C@@H](C)C(=O)[C@H](C)[C@H]2NC(=O)O[C@@]21C [Compound 675]
- MIC (A: E. coli OC2605) [1]: 16 µg/mL (≈ 19.4 µM)
- MIC (B: S. aureus ATCC29213) [2]: 0.5 µg/mL (≈ 0.606 µM)
- MIC (D: S. pneumoniae ATCC49619) [3]: 0.06 µg/mL (≈ 0.0727 µM)
- MIC (E: H. influenzae ATCC49247) [4]: 2 µg/mL (≈ 2.42 µM)
- MIC (C: E. faecalis ATCC29212) [5]: 0.12 µg/mL (≈ 0.145 µM)

Structure (SMILES): CCC1OC(=O)C(C)C(=O)C(C)C(OC2OC(C)CC(N(C)C)C2O)C(C)(OC(=O)OCC=Cc2ccc(-c3ncccn3)cc2)CC(C)C(=O)C(C)C2NC(=O)OC12C (centres unmarked) [Compound 7]
- MIC (A: E. coli OC2605) [1]: 8 µg/mL (≈ 9.56 µM)
- MIC (B: S. aureus ATCC29213) [2]: 0.12 µg/mL (≈ 0.143 µM)
- MIC (D: S. pneumoniae ATCC49619) [3]: 0.03 µg/mL (≈ 0.0358 µM)
- MIC (E: H. influenzae ATCC49247) [4]: 2 µg/mL (≈ 2.39 µM)
- MIC (C: E. faecalis ATCC29212) [5]: 0.06 µg/mL (≈ 0.0717 µM)

Structure (SMILES): CCC1OC(=O)C(C)C(=O)C(C)C(OC2OC(C)CC(N(C)C)C2O)C(C)(OC(=O)NOCC=Cc2ccc(-c3ncccn3)cc2)CC(C)C(=O)C(C)C2NC(=O)OC12C (centres unmarked) [Compound 605]
- MIC (A: E. coli OC2605) [1]: 16 µg/mL (≈ 18.8 µM)
- MIC (B: S. aureus ATCC29213) [2]: 0.25 µg/mL (≈ 0.293 µM)
- MIC (D: S. pneumoniae ATCC49619) [3]: 0.06 µg/mL (≈ 0.0704 µM)
- MIC (E: H. influenzae ATCC49247) [4]: 4 µg/mL (≈ 4.69 µM)
- MIC (C: E. faecalis ATCC29212) [5]: 0.25 µg/mL (≈ 0.293 µM)

Structure (SMILES): CCC1OC(=O)C(C)C(=O)C(C)C(OC2OC(C)CC(N(C)C)C2O)C(C)(OC(=O)OCC#Cc2ccc(-c3cnccn3)cc2)CC(C)C(=O)C(C)C2NC(=O)OC12C (centres unmarked) [Compound 86]
- MIC (A: E. coli OC2605) [1]: 8 µg/mL (≈ 9.58 µM)
- MIC (B: S. aureus ATCC29213) [2]: 0.12 µg/mL (≈ 0.144 µM)
- MIC (D: S. pneumoniae ATCC49619) [3]: 0.03 µg/mL (≈ 0.0359 µM)
- MIC (E: H. influenzae ATCC49247) [4]: 2 µg/mL (≈ 2.4 µM)
- MIC (C: E. faecalis ATCC29212) [5]: 0.06 µg/mL (≈ 0.0719 µM)

Structure (SMILES): CCC1OC(=O)C(C)C(=O)C(C)C(OC2OC(C)CC(N(C)C)C2O)C(C)(OC(=O)NOCCCc2ccc(-c3ncccn3)cc2)CC(C)C(=O)C(C)C2NC(=O)OC12C (centres unmarked) [Compound 608]
- MIC (A: E. coli OC2605) [1]: >16 µg/mL
- MIC (B: S. aureus ATCC29213) [2]: 0.5 µg/mL (≈ 0.585 µM)
- MIC (D: S. pneumoniae ATCC49619) [3]: 0.06 µg/mL (≈ 0.0703 µM)
- MIC (E: H. influenzae ATCC49247) [4]: 4 µg/mL (≈ 4.68 µM)
- MIC (C: E. faecalis ATCC29212) [5]: 0.5 µg/mL (≈ 0.585 µM)
